The text below walks through data of patent US8222008B2, “Methods and compositions for treating cancer” (The Administrators of The Tulane Educational Fund, priority 2003, dated 2012).

Marks after values point to notes of the source that are not given here.

Assay type in all cases: cell-based, human
One assay concerns T-47D (ER+). Briefly: Apoptosis in breast cancer cell lines, CaspACE assay with flow cytometry. Conditions: Tamoxifen 100 μM, 16 hours. The source says:
(§1) The apoptotic effect of CDME was compared to that of tamoxifen using the CaspACE™ assay system (Promega) and conventional flow cytometry techniques.
(§2) All cell lines were obtained from the American Type Culture Collection, P.O. Box 1549, Manassas, Va., 20108 unless otherwise indicated. The cell lines studied were estrogen receptor-negative breast cancer cell lines MDA-MB-231 (ATCC Accession No. HTB-26) and MDA-MB-468 (ATCC Accession No. HTB-132) and estrogen receptor-positive breast cancer cell lines, MCF-7 (ATCC Accession No. HTB-22) and T-47D (ATCC Accession No. HTB-133).
(§3) All cell lines were grown on the bottom of 12-well flasks in Gibco RPMI-1640, until they reached the confluency of about 50%. After that, the medium was exchanged with DMEM (Sigma, D-5030), supplemented with 10% charcoal-treated FBS.
(§4) After four days (at confluency of about 75%), cells were treated by exposure to either CDME (500 μM) or tamoxifen (100 μM) or neither for 16 hours at 37° C. CaspACE™ assay analysis of the treated and control cells was performed as described in Example 2 and measured via flow cytometry. Note that the dosage of tamoxifen was a maximum positive control dose, higher than that normally administered for chemotherapy.
A general note: Flow cytometry measures light scatter and fluorescence of single cells or particles in a stream.

A further assay concerns MCF-7 (ER+). Described as above. Conditions: Tamoxifen 100 μM, 16 hours.
Description: as §1, §2, §3, §4

The test system of another assay is MDA-MB-231 (ER−). The description is as above. The following applies: Tamoxifen 100 μM, 16 hours.
Description: as §1, §2, §3, §4

Another assay deals with MDA-MB-468 (ER−). Described as above. The following applies: Tamoxifen 100 μM, 16 hours.
Description: as §1, §2, §3, §4

Assay [1] has as its system cathepsin B in normal and nephropathic cystinotic fibroblasts. Briefly: Cathepsin B localisation by immunohistochemistry. Conditions: after TNF-a exposure; Lysotracker red and anti-cathepsin B staining. The protocol:
Cells were stained by Lysotracker® Red stain (Molecular Probes) for 5 minutes at room temperature, washed twice in PBS, and then fixed in 4% formalin for 1 hour. Slides were immersed in blocking buffer (PBS, pH 7.2, 0.5% Carnation® dry milk, 0.1% Triton® X-100 reagent) for 20 minutes at room temperature, washed twice in PBS, and then incubated with primary antibody (anti-cathepsin B, Santa Cruz Biotechnologies) diluted 1:100 for 2 hours at room temperature, followed by incubation with secondary antibody (FITC-conjugated rabbit anti-goat, Santa Cruz Biotechnologies), at 4° C. overnight. Slides were washed twice with PBS and then sealed with cover slips and viewed using a Leica® DMRX deconvoluting microscope.
To substantiate that lysosomes are perneabilized by TNF-a (Guicciardi M, 2000J. Clin. Invest., 106:1127-1137) under these conditions, cathepsin B (a lysosomal cysteine protease) was localized by immunohistochemistry in normal and nephropathic cystinotic cells before and after induction of apoptosis. Fibroblasts were maintained under normal culture conditions, exposed to TNF-a, loaded with Lysotracker® red reagent, fixed, and stained for cathepsin B using an anti-cathepsin B antibody. Photographs were made via a deconvoluting microscope.
Lysosomes were identified with Lysotracker red dye. […]

Assay [2] concerns GM00760 nephropathic cystinotic fibroblasts. Briefly: Apoptosis by apoptotic triggers, TUNEL assay. Conditions: TNF-a 30 ng/mL with actinomycin D 2.5 μg/mL for 16 hours. How it is done: (§5) Normal and cystinotic fibroblasts were purchased from the Coriell Mutant Cell Repository, and cultured in Coon modification of Ham F12 medium, supplemented with 10% fetal calf serum (FCS). Renal proximal tubule epithelial (RPTE; Biowhittaker Corp.) were cultured in renal epithelial basal medium supplemented with one Singlequots™ kit (Biowhittaker) per 500 mL to make renal epithelial growth media (REGM, Biowhittaker). Fibroblasts and RPTE were maintained in a 5% carbon dioxide, 95% air, humidified incubator at 37° C. (Thoene J. G. et al, 1976 J. Clin. Invest, 58:180-189).
(§6) Induction of apoptosis and assays for its detection were performed using commercially available reagents. Normal and cystinotic fibroblasts were matched for passage number (±3) and cell density, and then exposed to an apoptotic trigger. One apoptotic trigger used was TNF-a (30 ng/mL) with actinomycin D (2.5 μg/mL) for 16 hours. Another trigger was anti-Fas antibody (500 ng/mL) with actinomycin D (2.5 μg/mL) for 16 hours. A third trigger to induce apoptosis in the cells was Ultraviolet B light (60 mJ). See, e.g., previously described protocols of Aggarwal B B, 1992 Immunol. Ser., 56:61-78; Higuchi M. et al, 1995 J. Immunol. Meth., 178:173-181; Itoh N, et al, 1991 Cell, 66:233-243; Itoh N. et al, 1993 J. Biol. Chem., 268:10932-10937. Serum withdrawal was also used as a apoptotic stimulus (Lieberthal W, et al, 1998 Am. J. Physiol. 275:F691-F702; Verzola D. et al, 2001 Exp Nephrol., 9:366-371; Iglesias J. et al, 1999 Am. J. Physiol. 277:F711-F712; Kulkarni G V, et al, 1994 J. Cell Sci., 107:1169-1179), in which case the cells were incubated in F12 medium without serum for 24 hours and then analyzed for apoptosis.
(§7) 2. TUNEL Assay • The TUNEL assay employs terminal deoxynucleotidyl transferase (TdT) to label the ends of double stranded DNA breaks, which occur in apoptotic cells, with FITC-conjugated dUTP. Cells were fixed in 4% buffered formalin, washed, incubated in permeabilization solution (0.1% Triton X-100 in 0.1% Na Citrate) for 2 minutes on ice and then stained with 25 μL of TdT/45 μL of labeled dNTP mix for 40 minutes at 37° C. The cells were visually enumerated by fluorescence microscopy, scoring a minimum of five fields (250 to 300 cells) for fluorescence in triplicate followed by counting all cells in the same field by light microscopy, with a minimum of 750 cells scored per condition. The apoptosis rate is the total number of cells that fluoresce divided by the total cells in the field.
(§8) In another experiment, cells were treated with apoptosis inducers as indicated, stained with TUNEL reagent, and analyzed by florescence microscopy. A minimum of 250 cells were scored per conditions in triplicate. […] P>0.05 for ocular versus normal and intermediate; P=0.01 for ocular versus nephropathic.

Assay [3] deals with GM00008 nephropathic cystinotic fibroblasts. In words: Apoptosis by apoptotic triggers, TUNEL assay. The following applies: TNF-a 30 ng/mL with actinomycin D 2.5 μg/mL for 16 hours. The protocol:
as §5, §6, §7, §8

Assay [4] relates to nephropathic cystinotic fibroblasts (AVG of 3). In words: Apoptosis by apoptotic triggers, TUNEL assay. The following applies: TNF-a 30 ng/mL with actinomycin D 2.5 μg/mL for 16 hours, AVG of 3 nephropathic lines. The protocol:
as §5, §6, §7, §8

Assay [5] relates to GM08761 ocular cystinotic fibroblasts. Briefly: Apoptosis by apoptotic triggers, TUNEL assay. The following applies: TNF-a 30 ng/mL with actinomycin D 2.5 μg/mL for 16 hours. The protocol: as §5, §6, §7, §8
For assay [6], the system named is GM00010 normal fibroblasts. Briefly: Apoptosis by apoptotic triggers, TUNEL assay. The following applies: TNF-a 30 ng/mL with actinomycin D 2.5 μg/mL for 16 hours. How it is done:
as §5, §6, §7, §8

Assay [7] deals with GM00379 intermediate cystinotic fibroblasts. Briefly: Apoptosis by apoptotic triggers, TUNEL assay. Conditions: TNF-a 30 ng/mL with actinomycin D 2.5 μg/mL for 16 hours. How it is done:
as §5, §6, §7, §8

Assay [8] has as its system normal fibroblasts (AVG of 2). In words: Apoptosis by apoptotic triggers, TUNEL assay. The following applies: TNF-a 30 ng/mL with actinomycin D 2.5 μg/mL for 16 hours, AVG of 2 normal lines. The protocol: as §5, §6, §7, §8
Assay [9] deals with GM05399 normal fibroblasts. Briefly: Apoptosis by apoptotic triggers, TUNEL assay. The following applies: TNF-a 30 ng/mL with actinomycin D 2.5 μg/mL for 16 hours. The protocol:
as §5, §6, §7, §8

In assay [10] the test system is GM00046 nephropathic cystinotic fibroblasts. Briefly: Apoptosis by apoptotic triggers, TUNEL assay. The following applies: TNF-a 30 ng/mL with actinomycin D 2.5 μg/mL for 16 hours. The protocol: as §5, §6, §7, §8
Assay [11] has as its system GM00760 nephropathic cystinotic fibroblasts. In words: Apoptosis by apoptotic triggers, CaspACE assay. Conditions: TNF-a 30 ng/mL with actinomycin D 2.5 μg/mL for 16 hours. The protocol:
as §5, §6
(§9) 1. The CaspACE Assay • CaspACE (Promega) is an FITC-conjugated cell-permeable form of the pan-caspase inhibitor zVAD-Fmk, which binds to activated caspase(s). Cells were incubated in FITC-VAD-Fmk-containing medium (10 μM for 30 minutes at 37° C.), washed, and then fixed in 10% buffered formalin (30 minutes at room temperature) before analysis. The cells were visually enumerated by fluorescence microscopy, scoring a minimum of five fields (250 to 300 cells) for fluorescence in triplicate followed by counting all cells in the same field by light microscopy, with a minimum of 750 cells scored per condition. The apoptosis rate is the total number of cells that fluoresce divided by the total cells in the field.
(§10) Apoptosis was induced in three nephropathic cystinotic, two normal, one intermediate cystinotic, and one ocular cystinotic fibroblast lines by three separate inducers. In one experiment, cells were treated with apoptosis inducers as indicated above. Apoptosis in these lines was assessed by CaspACE assay and analyzed by fluorescence microscopy. A minimum of 250 cells was scored per condition, in triplicate. Thus at least 750 cells were scored precondition. T-statistics: P<0.001 for average nephropathic versus average normal. P<0.05 for ocular versus nephropathic. P>0.05 for ocular versus normal, intermediate versus nephropathic, and intermediate versus normal.

Assay [12] has as its system GM00008 nephropathic cystinotic fibroblasts. In words: Apoptosis by apoptotic triggers, CaspACE assay. Conditions: TNF-a 30 ng/mL with actinomycin D 2.5 μg/mL for 16 hours. The protocol:
as §5, §6, §9, §10

Assay [13] deals with nephropathic cystinotic fibroblasts (AVG of 3). Briefly: Apoptosis by apoptotic triggers, CaspACE assay. Conditions: TNF-a 30 ng/mL with actinomycin D 2.5 μg/mL for 16 hours, AVG of 3 nephropathic lines. The protocol:
as §5, §6, §9, §10

For assay [14], the system named is GM08761 ocular cystinotic fibroblasts. In words: Apoptosis by apoptotic triggers, CaspACE assay. Conditions: TNF-a 30 ng/mL with actinomycin D 2.5 μg/mL for 16 hours. The protocol:
as §5, §6, §9, §10

Assay [15] deals with GM00010 normal fibroblasts. In words: Apoptosis by apoptotic triggers, CaspACE assay. The following applies: TNF-a 30 ng/mL with actinomycin D 2.5 μg/mL for 16 hours. How it is done: as §5, §6, §9, §10
The subject of assay [16] is GM00379 intermediate cystinotic fibroblasts. Briefly: Apoptosis by apoptotic triggers, CaspACE assay. The following applies: TNF-a 30 ng/mL with actinomycin D 2.5 μg/mL for 16 hours. The protocol:
as §5, §6, §9, §10

For assay [17], the system named is normal fibroblasts (AVG of 2). Briefly: Apoptosis by apoptotic triggers, CaspACE assay. The following applies: TNF-a 30 ng/mL with actinomycin D 2.5 μg/mL for 16 hours, AVG of 2 normal lines. How it is done: as §5, §6, §9, §10
Assay [18] relates to GM05399 normal fibroblasts. In words: Apoptosis by apoptotic triggers, CaspACE assay. Conditions: TNF-a 30 ng/mL with actinomycin D 2.5 μg/mL for 16 hours. How it is done: as §5, §6, §9, §10
Assay [19] relates to GM00046 nephropathic cystinotic fibroblasts. In words: Apoptosis by apoptotic triggers, CaspACE assay. The following applies: TNF-a 30 ng/mL with actinomycin D 2.5 μg/mL for 16 hours. How it is done:
as §5, §6, §9, §10

With `CC/C(=C(\c1ccccc1)c1ccc(OCCN(C)C)cc1)c1ccccc1` [Tamoxifen, tamoxifen, reference compound], the “percent of apoptotic cells (±S.D.)” value in the assay on T-47D (ER+) turned out to be 99.91 ± 0.08%; in the assay with MCF-7 (ER+), 98.47 ± 0.53%; in the assay on MDA-MB-231 (ER−), 98.92 ± 0.99%; with MDA-MB-468 (ER−), 90.37 ± 1.70%.
For TNF-a, the “localisation of cathepsin B” value in assay [1] is on record as “translocation of cathepsin B from a lysosomal location to a diffuse cytosolic location”. Further, the “% Apoptosis” value in assay [2] is on record as 19.3%; in [3], 17.1%; in assay [4], 17.2%; in assay [5] it was 5.5%; in assay [6], 12.8%; in assay [7], 8.2%. Besides, the “% Apoptosis” value is listed as 12.1% in assay [8]; 11.4% in assay [9]; 15.3* % in assay [10]; 13.5% in assay [11]; 14.9% in [12]; 14.8% in assay [13]. For the same compound, the “% Apoptosis” value in assay [14] came to 8.2%; in [15] it was 9.2%; in assay [16] it was 11.4%; in assay [17], 7.8%; in assay [18] it was 6.3%; in [19], 16.1%.
